From patent US9737523B2, “Anti-fibrogenic compounds, methods and uses thereof” (priority 2013, dated 2017) come the findings set out here.

SMILES strings stand for the structures.

One experiment relates to rabbit ear wounds. In words: Rabbit ear hypertrophic scar model, topical application. In kind it is in vivo. The procedure:
Female rabbits (New Zealand white) weighing 4.5-5 kg were used for this study. The protocol was reviewed and approved by the University of British Columbia animal care committees. The rabbit ear model of hypertrophic scar was created as described previously (Rahmani-Neishaboor, et al., 2010). Briefly, 2 rabbits were anesthetized by intramuscular injection of ketamine (22.5 mg/kg) and xylazine (2.5 mg/kg) followed by isoflurane gas through tracheal intubation. Four wounds were created down to bare cartilage on the ventral side of each ear using an 8-mm dermal biopsy punch to remove full-thickness sections of skin. Antibiotics were applied on wounds daily until kynurenine treatment was started.
Kynureine in CMC gel (Rahmani-Neishaboor et al., 2010) with a concentration of 500 μg/ml was applied topically to the wounds of the experimental group (0.1 ml per wound) daily for 3 weeks starting at 1 week post wounding. The wounds of the control group were received the treatment with an equal amount of cream alone daily.
Animals were sacrificed on weeks 3 after treatments. Scars (10 mm punch biopsies) were harvested. Each scar was sectioned in two along its longitudinal axis and half of which was processed for routine histological analysis and another half was kept at −80° C. for future use.
Scar elevation was quantified by measuring Scar Elevation Index (SEI) from the H & E stained tissue section. The SEI is a ratio of total height in the wound tissue to the normal tissue below the hypertrophic scar.
According to a method previously reported (Gawronskao-Kozak B. et al. 2006), half of 8 mm diameter skin punches were weighed and frozen in −80° C. Skins were homogenized in 2 ml of PBS and stored at 4° C. overnight. The next day, 1 ml of 6N HCl was added and the mixture was heated at 120° C. for 5 hours. 20 μl of cooled samples and 50 μl of chloramine T solution were added to the 96-well plate and incubated at room temperature for 20 minutes. 50 μl of Erlich solution was then added and the mixture was incubated at 65° C. for 15 minutes. Absorbance was read at 570 nm. Hydroxyproline concentration was calculated by a standard curve.
RNA was extracted by Trizol™ (Invitrogen Life Technologies™). Briefly, 1 ml of Trizol™ was added to the homogenized skin tissue. 250 μl of chloroform was added after the mixture was standed at room temperature for 5 minutes. Top aqueous phase was transferred into a new eppendorf tube after centrifugation for 10 minute at 20,000×g. Equal volume isopropanol was added to the aqueous phase and mixed gently. The pellet was washed with 1 ml of 75% ethanol after centrifugation for 20 minutes. RNA was dissolved in DEPC treated H2O and its concentration was measured by Nanodrop2000™. cDNA was synthesized by cDNA synthesis kit from Roche according to manufacture's introduction using 1 μg of total RNA in each sample. Quantitative real-time PCR for rabbit type-1 α1 collagen, MMP-1 and housekeeper gene β-actin were performed in ViiA7 (Invitrogen™). cDNA samples were added to a PCR reaction master mix containing STBR Green Master Mix™ (Rox) (Roche™, Indianapolis, Ind.). All reactions were performed in duplicate using the following cycle conditions: 1 cycle of 95° C. for 10 minutes, 40 cycles of 95° C. for 15 seconds and 60° C. for 1 minute. The expression level of type-1 α1 collagen and MMP-1 in each sample was normalised to β-actin. RT-PCR primers: rabbit type-1 α1 collagen: 5′-[…]-3′ (Forward), 5′-[…]-3′ (Reverse); MMP-1,5′-[…]-3′ (Forward), 5′-[…]-3′ (Reverse); β-actin, 5′-[…]-3′ (Forward), 5′-[…]-3′(Reverse).

The next experiment concerns UMSCC. In words: MMP-1 expression in squamous cell carcinoma cell line UMSCC, Western blot. In kind it is cell-based, human. As to conditions: 12.5 to 150 μg/ml, 48 hours. The procedure:
The squamous cell carcinoma (UMSCC) cell line derived from patients with head and neck cancer (ATCC™, Manassas, Va.) were maintained in RPMI-1640 medium with 10% FBS. The Human keratinocyte cell line HACAT (ATCC) and the carcinomic human alveolar basal epithelial cell line A549 (ATCC™) were cultured in DMEM with 10% FBS. The diploid lung fibroblasts IMR-90 (ATCC™) were maintained in Minimum Essential Medium (MEM, Invitrogen™) with 10% FBS.
(§1) Similarly, other cells such as synoviocytes, IMR-90, keratinocytes, UMSCC and A549 were treated with kynurenine at concentrations of 12.5 to 150 μg/ml in appropriate media for each cell type as described above for 48 hours. Cells were then harvested for western blot analysis.
(§2) Cells were harvested by Trypsin/EDTA and lysed with cell lysis buffer containing 50 mM Tris-HCl (pH7.40), 150 mM NaCl, 10 mM EDTA, 5 mM EGTA, 1% TritonX-100™, 0.5% Igepal CA-630, 0.025% NaN3 and protease inhibitor cocktail (Sigma™). Cell debris was removed by centrifugation at 20,000×g for 10 minutes. The protein concentration in supernatant was determined using the MicroBCA™ method (Pierce™, Rockford, Ill.). Proteins in supernatant were mixed with protein sample loading buffer (final concentration: 60 mM Tris-HCl (pH 6.80), 2% SDS, 10% glycerol, 1.5% β-mercaptoethanol, 0.002% bromophenol blue) and size fractioned by 10% of SDS-polyacrylamide gel. […]
For orientation: In western blotting, separated proteins are transferred to a membrane and probed.

The subject of a further experiment is synoviocytes. The experiment in a line: MMP-1 expression in synoviocytes, Western blot. In kind it is cell-based, human. As to conditions: 12.5 μg/ml to 150 μg/ml, 48 hours. The procedure:
Synoviocytes were obtained by enzymatic digestion of synovial membrane from patients with rheumatoid arthritis during joint replacement with 1 mg/ml collagenase (Sigma™) in RPMI1640 (Invitrogen Life Technologies™) for 4 hours at 37° C. Dissociated cells were plated in synoviocyte growth medium (Cell Applications Inc.™, San Diego, Calif.) supplemented with penicillin G sodium (100 U/mL), streptomycin sulfate (100 μg/mL), and amphotericin B (0.25 μg/mL).
as §1, §2

The mark [1] stands for this setting: 50 μg in 0.1 ml CMC gel daily for three weeks.
Where [2] appears, read: topical, versus no treatment or gel alone.

With `Nc1ccccc1C(=O)CC(N)C(=O)O` (racemic) [kynurenine], in the experiment on rabbit ear wounds (setting [1]), the “collagen content (Massons' trichrome staining)” value was “significant reduction” and the “hydroxyproline content (index for tissue collagen content)” value was “significant lower”. For the same compound, in the experiment with rabbit ear wounds (50 μg in 0.1 ml CMC gel daily for three weeks, n=8, vehicle 1.978±0.442, untreated 2.098±0.324), the “average scar elevation index (SEI)” value turned out to be 1.172±0.156. The “scarring versus non-treated or vehicle-only wounds” value in the experiment on rabbit ear wounds (50 μg in 0.1 ml CMC gel daily, after three weeks) is listed as “significantly less scarring”. Further, the “wound closure versus untreated or CMC gel treated controls” value with rabbit ear wounds (50 μg in 0.1 ml CMC gel daily, three weeks from day 8 post-wounding, data not shown) is given as “no significant difference”. Further, in the experiment on rabbit ear wounds (setting [2]), the “expression of MMP-1 in rabbit ear skin (quantitative RT-PCR)” value was “increased” and the “expression of type-1 α1 collagen in rabbit ear skin (quantitative RT-PCR)” value is “decreased”. Further, the “MMP-1 expression versus untreated controls” value in the experiment on UMSCC is listed as “did not significantly differ”. Besides, the MMP-1 expression entry in the experiment with synoviocytes is “up-regulated”.
